Source: patent US4868321A, “Isothiocyanate intermediates” (FMC Corporation, priority 1988, dated 1989)
Where a name gives a salt, the structure may show the parent alone.

Legend:
Format in all cases: in vivo
Cotton [1] = assay: Preemergence Herbicidal Activity, Cotton; conditions: Gossypium hirsutum, pre-emergence
From the text: (§1) The herbicidal data in the following Tables 3 and 4 was obtained in the manner described in PCT published application no. WO 85/01939, previously mentioned, usually employing solutions of the herbicidal compound in 50/50 acetone/water mixtures. In those tables, the test compounds are identified by numbers which correspond to those in Table 1, "kg/ha" is kilograms per hectare, and "% C" is percent control.

Soybean [2] = assay: Preemergence Herbicidal Activity, Soybean
From the text: (§2) The herbicidal data in the following Tables 3 and 4 was obtained in the manner described in PCT published application no. […] In those tables, the test compounds are identified by numbers which correspond to those in Table 1, "kg/ha" is kilograms per hectare, and "% C" is percent control.

Field Corn [3] = assay: Preemergence Herbicidal Activity, Field Corn; conditions: Zea mays, pre-emergence
From the text: as §2

Rice [4] = assay: Preemergence Herbicidal Activity, Rice; conditions: Oryza sativa, pre-emergence
From the text: as §2

Wheat [5] = assay: Preemergence Herbicidal Activity, Wheat; conditions: Triticum aestivum, pre-emergence
From the text: as §2

Morningglory [6] = assay: Preemergence Herbicidal Activity, Morningglory; conditions: Ipomoea, pre-emergence
From the text: as §1

Velvetleaf [7] = assay: Preemergence Herbicidal Activity, Velvetleaf; conditions: Abutilon theophrasti, pre-emergence
From the text: as §1

Barnyardgrass [8] = assay: Preemergence Herbicidal Activity, Barnyardgrass; conditions: Echinochloa crus-galli, pre-emergence
From the text: as §2

Green Foxtail [9] = assay: Preemergence Herbicidal Activity, Green Foxtail; conditions: Setaria viridis, pre-emergence
From the text: as §2

Johnsongrass [10] = assay: Preemergence Herbicidal Activity, Johnsongrass; conditions: Sorghum halepense, pre-emergence
From the text: as §2

Cotton [11] = assay: Postemergence Herbicidal Activity, Cotton; conditions: Gossypium hirsutum, post-emergence
From the text: as §1

Soybean [12] = assay: Postemergence Herbicidal Activity, Soybean; conditions: Glycine max, post-emergence
From the text: as §2

Field Corn [13] = assay: Postemergence Herbicidal Activity, Field Corn; conditions: Zea mays, post-emergence
From the text: as §2

Rice [14] = assay: Postemergence Herbicidal Activity, Rice; conditions: Oryza sativa, post-emergence
From the text: as §2

Wheat [15] = assay: Postemergence Herbicidal Activity, Wheat; conditions: Triticum aestivum, post-emergence
From the text: as §2

Morningglory [16] = assay: Postemergence Herbicidal Activity, Morningglory
From the text: as §1

Velvetleaf [17] = assay: Postemergence Herbicidal Activity, Velvetleaf; conditions: Abutilon theophrasti, post-emergence
From the text: as §1

Barnyardgrass [18] = assay: Postemergence Herbicidal Activity, Barnyardgrass; conditions: Echinochloa crus-galli, post-emergence
From the text: as §2

Green Foxtail [19] = assay: Postemergence Herbicidal Activity, Green Foxtail; conditions: Setaria viridis, post-emergence
From the text: as §2

Johnsongrass [20] = assay: Postemergence Herbicidal Activity, Johnsongrass; conditions: Sorghum halepense, post-emergence
From the text: as §2

Field Bindweed [21] = assay: Preemergence Herbicidal Activity, Field Bindweed; conditions: pre-emergence
From the text: as §1

Field Bindweed [22] = assay: Postemergence Herbicidal Activity, Field Bindweed; conditions: post-emergence, 8.0 kg/ha
From the text: as §1

CCCS(=O)(=O)N(c1cc(-n2nnn(CCCF)c2=O)c(F)cc1Cl)S(=O)(=O)CCC [Compound 26, 1-[4-chloro-2-fluoro-5-[bis(N--propylsulfonyl)amino]phenyl]-1,4-dihydro-4-(3-fluoropropyl)-5H--tetrazol-5-one]
plant injury at 500 g/ha (Cotton [1]; 0.5 kg/ha): 50% | plant injury at 500 g/ha (Soybean [2]; Glycine max, pre-emergence, 0.5 kg/ha): 0% | plant injury at 500 g/ha (Field Corn [3]; 0.5 kg/ha): 90% | plant injury at 500 g/ha (Rice [4]; 0.5 kg/ha): 20% | plant injury at 500 g/ha (Wheat [5]; 0.5 kg/ha): 60% | pest or weed control at 500 g/ha (Morningglory [6]; 0.5 kg/ha): 60% | pest or weed control at 500 g/ha (Velvetleaf [7]; 0.5 kg/ha): 100% | pest or weed control at 500 g/ha (Barnyardgrass [8]; 0.5 kg/ha): 100% | pest or weed control at 500 g/ha (Green Foxtail [9]; 0.5 kg/ha): 60% | pest or weed control at 500 g/ha (Johnsongrass [10]; 0.5 kg/ha): 95% | plant injury at 500 g/ha (Cotton [11]; 0.5 kg/ha): 100% | plant injury at 500 g/ha (Soybean [12]; 0.5 kg/ha): 50% | plant injury at 500 g/ha (Field Corn [13]; 0.5 kg/ha): 100% | plant injury at 500 g/ha (Rice [14]; 0.5 kg/ha): 40% | plant injury at 500 g/ha (Wheat [15]; 0.5 kg/ha): 90% | pest or weed control at 500 g/ha (Morningglory [16]; Ipomoea, post-emergence, 0.5 kg/ha): 100% | pest or weed control at 500 g/ha (Velvetleaf [17]; 0.5 kg/ha): 100% | pest or weed control at 500 g/ha (Barnyardgrass [18]; 0.5 kg/ha): 80% | pest or weed control at 500 g/ha (Green Foxtail [19]; 0.5 kg/ha): 80% | pest or weed control at 500 g/ha (Johnsongrass [20]; 0.5 kg/ha): 70%

CCS(=O)(=O)N(c1cc(-n2nnn(CCCF)c2=O)ccc1Cl)S(=O)(=O)CC [Compound 18, 1-[4-chloro-3-[bis(N--ethylsulfonyl)-amino]phenyl]-1,4-dihydro-4-(3-fluoropropyl)-5H--tetrazol-5-one]
plant injury at 8000 g/ha (Cotton [1]; 8.0 kg/ha): 100% | plant injury at 8000 g/ha (Soybean [2]; Glycine max, pre-emergence, 8.0 kg/ha): 10% | plant injury at 8000 g/ha (Field Corn [3]; 8.0 kg/ha): 0% | plant injury at 8000 g/ha (Wheat [5]; 8.0 kg/ha): 0% | pest or weed control at 8000 g/ha (Field Bindweed [21]; 8.0 kg/ha): 30% | pest or weed control at 8000 g/ha (Morningglory [6]; 8.0 kg/ha): 40% | pest or weed control at 8000 g/ha (Velvetleaf [7]; 8.0 kg/ha): 95% | pest or weed control at 8000 g/ha (Barnyardgrass [8]; 8.0 kg/ha): 20% | pest or weed control at 8000 g/ha (Green Foxtail [9]; 8.0 kg/ha): 10% | pest or weed control at 8000 g/ha (Johnsongrass [10]; 8.0 kg/ha): 40% | plant injury at 8000 g/ha (Cotton [11]; 8.0 kg/ha): 60% | plant injury at 8000 g/ha (Soybean [12]; 8.0 kg/ha): 60% | plant injury at 8000 g/ha (Field Corn [13]; 8.0 kg/ha): 30% | plant injury at 8000 g/ha (Wheat [15]; 8.0 kg/ha): 10% | pest or weed control at 8000 g/ha (Field Bindweed [22]): 50% | pest or weed control at 8000 g/ha (Morningglory [16]; Ipomoea, post-emergence, 8.0 kg/ha): 70% | pest or weed control at 8000 g/ha (Velvetleaf [17]; 8.0 kg/ha): 95% | pest or weed control at 8000 g/ha (Barnyardgrass [18]; 8.0 kg/ha): 30% | pest or weed control at 8000 g/ha (Green Foxtail [19]; 8.0 kg/ha): 30% | pest or weed control at 8000 g/ha (Johnsongrass [20]; 8.0 kg/ha): 30%

CCS(=O)(=O)Nc1cc(-n2nnn(CCCF)c2=O)c(F)cc1Cl [Compound 31, 1-[4-Chloro-2-fluoro-5-(N--ethylsulfonylamino)phenyl]-1,4-dihydro-4-(3-fluoropropyl)-5H--tetrazol-5-one potassium salt]
plant injury at 250 g/ha (Cotton [1]; 0.25 kg/ha): 100% | Preemergence Herbicidal Activity (Soybean [2]; 0.25 kg/ha, potassium salt): 10 % Control | plant injury at 250 g/ha (Field Corn [3]; 0.25 kg/ha): 30% | plant injury at 250 g/ha (Rice [4]; 0.25 kg/ha): 40% | plant injury at 250 g/ha (Wheat [5]; 0.25 kg/ha): 20% | pest or weed control at 250 g/ha (Field Bindweed [21]; 0.25 kg/ha): 100% | pest or weed control at 250 g/ha (Morningglory [6]; 0.25 kg/ha): 100% | pest or weed control at 250 g/ha (Velvetleaf [7]; 0.25 kg/ha): 100% | pest or weed control at 250 g/ha (Barnyardgrass [8]; 0.25 kg/ha): 95% | pest or weed control at 250 g/ha (Green Foxtail [9]; 0.25 kg/ha): 50% | pest or weed control at 250 g/ha (Johnsongrass [10]; 0.25 kg/ha): 70% | plant injury at 250 g/ha (Soybean [12]; 0.25 kg/ha): 80% | plant injury at 250 g/ha (Field Corn [13]; 0.25 kg/ha): 30% | plant injury at 250 g/ha (Rice [14]; 0.25 kg/ha): 40% | plant injury at 250 g/ha (Wheat [15]; 0.25 kg/ha): 40% | Postemergence Herbicidal Activity (Morningglory [16]; 0.25 kg/ha, potassium salt): 100 % Control | pest or weed control at 250 g/ha (Barnyardgrass [18]; 0.25 kg/ha): 80% | pest or weed control at 250 g/ha (Green Foxtail [19]; 0.25 kg/ha): 60% | pest or weed control at 250 g/ha (Johnsongrass [20]; 0.25 kg/ha): 60%
